The text below walks through data of publication PMC8607422, “Development of a novel TLR8 agonist for cancer immunotherapy” (Molecular Biomedicine, 2020).

The target of one data set is T1, hTLR9 (Homo sapiens, UniProt Q9NR96).
T1 construct: host or cells: HEK-Blue hTLR9
T1 sequence (Q9NR96 26-1032): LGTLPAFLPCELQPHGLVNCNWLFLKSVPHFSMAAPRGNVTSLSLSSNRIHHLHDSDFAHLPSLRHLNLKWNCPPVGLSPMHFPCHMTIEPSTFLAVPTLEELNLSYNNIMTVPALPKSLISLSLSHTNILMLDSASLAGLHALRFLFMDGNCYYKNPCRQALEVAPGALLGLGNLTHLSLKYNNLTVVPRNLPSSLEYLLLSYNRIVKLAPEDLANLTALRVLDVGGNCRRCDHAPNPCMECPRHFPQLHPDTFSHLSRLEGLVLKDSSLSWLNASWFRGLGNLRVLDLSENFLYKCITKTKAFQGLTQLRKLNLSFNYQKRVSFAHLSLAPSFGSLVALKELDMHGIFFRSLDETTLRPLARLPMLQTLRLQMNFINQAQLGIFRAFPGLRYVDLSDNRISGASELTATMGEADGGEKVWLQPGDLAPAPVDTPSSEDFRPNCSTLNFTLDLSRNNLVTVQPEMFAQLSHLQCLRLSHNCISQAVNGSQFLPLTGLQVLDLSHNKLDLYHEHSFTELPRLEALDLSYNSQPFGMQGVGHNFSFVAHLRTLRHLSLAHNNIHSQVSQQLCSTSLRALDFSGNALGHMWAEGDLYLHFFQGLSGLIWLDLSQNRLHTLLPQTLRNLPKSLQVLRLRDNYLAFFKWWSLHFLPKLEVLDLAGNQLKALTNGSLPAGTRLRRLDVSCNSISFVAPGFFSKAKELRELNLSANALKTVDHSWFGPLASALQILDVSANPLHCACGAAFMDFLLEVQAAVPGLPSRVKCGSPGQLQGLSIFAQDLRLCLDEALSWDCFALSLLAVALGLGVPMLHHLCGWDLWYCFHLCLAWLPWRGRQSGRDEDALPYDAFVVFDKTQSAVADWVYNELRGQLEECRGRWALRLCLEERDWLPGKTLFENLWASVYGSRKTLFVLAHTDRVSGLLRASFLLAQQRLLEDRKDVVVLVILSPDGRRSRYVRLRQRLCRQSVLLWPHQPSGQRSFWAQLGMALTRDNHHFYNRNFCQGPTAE
The experiment in a line: HEK-Blue hTLR9 SEAP reporter agonist assay. Type of data set: cell-based. The settings on record: HEK-Blue hTLR9 cells, highest concentration 50 μM. The text has this: HEK-Blue™ hTLR4, 7, 8 and 9 cell lines were purchased from InvivoGen (Hong Kong). The cells express the human TLR gene and NF-κB/AP-1-inducible SEAP (secreted embryonic alkaline phosphatase) reporter gene. SEAP levels produced upon TLR stimulation can be determined by QUANTI-Blue™. In the cell-based assay, the main reagents used were QUANTI-Blue™ (InvivoGen) and ATPlite 1 Step (Perkin Elmer). The main instruments used were the microplate reader SpectraMax 340PC (Molecular Device) and Envision (Perkin Elmer). Motolimod and DN052 were synthesized in house. […] The compounds were in 10 mM stock solution in DMSO and stored at − 20°C. The compounds were serially diluted in the concentration range from 0.5 nM to 15 μM (up to 50 μM in the hTLR4, hTLR7 and hTLR9 assays) and added to 96-well plates. DMSO was used as the negative control. LPS-EK, R848, motolimod and ODN2006 were used as the positive control for TLR4, 7, 8 and 9, respectively. The cells were cultured and treated with the compounds at 37°C, 5%CO2 for 24 h. […] After 1.5 h of incubation, the optical density was measured using the spectrophotometer at 650 nm in the microplate reader of SpectraMax 340PC. The cell viability of each well was determined using ATPlite 1 Step following the manufacturer’s instruction. The luminescence signal in each well of plates was measured in the microplate reader of Envision.

Another data set has as its system T2, hERG potassium channel.
T2 construct: purchased Eurofins Cerep44 panel
The experiment in a line: Eurofins Cerep44 off-target panel. The settings on record: human; 10 μM compound; >50% considered significant; read-out: effect on potassium channel hERG in Cerep screen (% inhibition of binding). As to the method: Compound binding was calculated as a % inhibition of the binding of a radioactively labeled ligand specific for each target. Compound enzyme inhibition effect was calculated as a % inhibition of control enzyme activity.
A general note: The hERG channel carries a current that helps repolarise heart muscle cells.

In general, EC50 refers to the concentration giving half of the maximal effect. One may read the inhibition as how much of the control response was suppressed. Molecule `CCCN(CCC)C(=O)C1=Cc2ccc(-c3ccc(C(=O)N4CCCC4)cc3)cc2N=C(N)C1` [Motolimod, motolimod] registered an EC50 on hTLR9 above 50 µM. Also, the inhibition at 10 µM in the data set with hERG potassium channel was 59.2%.
